Some results are limits rather than exact numbers.

Chain of human sodium ion channel 1.7 (hNav1.7) (Q15858 whole entry): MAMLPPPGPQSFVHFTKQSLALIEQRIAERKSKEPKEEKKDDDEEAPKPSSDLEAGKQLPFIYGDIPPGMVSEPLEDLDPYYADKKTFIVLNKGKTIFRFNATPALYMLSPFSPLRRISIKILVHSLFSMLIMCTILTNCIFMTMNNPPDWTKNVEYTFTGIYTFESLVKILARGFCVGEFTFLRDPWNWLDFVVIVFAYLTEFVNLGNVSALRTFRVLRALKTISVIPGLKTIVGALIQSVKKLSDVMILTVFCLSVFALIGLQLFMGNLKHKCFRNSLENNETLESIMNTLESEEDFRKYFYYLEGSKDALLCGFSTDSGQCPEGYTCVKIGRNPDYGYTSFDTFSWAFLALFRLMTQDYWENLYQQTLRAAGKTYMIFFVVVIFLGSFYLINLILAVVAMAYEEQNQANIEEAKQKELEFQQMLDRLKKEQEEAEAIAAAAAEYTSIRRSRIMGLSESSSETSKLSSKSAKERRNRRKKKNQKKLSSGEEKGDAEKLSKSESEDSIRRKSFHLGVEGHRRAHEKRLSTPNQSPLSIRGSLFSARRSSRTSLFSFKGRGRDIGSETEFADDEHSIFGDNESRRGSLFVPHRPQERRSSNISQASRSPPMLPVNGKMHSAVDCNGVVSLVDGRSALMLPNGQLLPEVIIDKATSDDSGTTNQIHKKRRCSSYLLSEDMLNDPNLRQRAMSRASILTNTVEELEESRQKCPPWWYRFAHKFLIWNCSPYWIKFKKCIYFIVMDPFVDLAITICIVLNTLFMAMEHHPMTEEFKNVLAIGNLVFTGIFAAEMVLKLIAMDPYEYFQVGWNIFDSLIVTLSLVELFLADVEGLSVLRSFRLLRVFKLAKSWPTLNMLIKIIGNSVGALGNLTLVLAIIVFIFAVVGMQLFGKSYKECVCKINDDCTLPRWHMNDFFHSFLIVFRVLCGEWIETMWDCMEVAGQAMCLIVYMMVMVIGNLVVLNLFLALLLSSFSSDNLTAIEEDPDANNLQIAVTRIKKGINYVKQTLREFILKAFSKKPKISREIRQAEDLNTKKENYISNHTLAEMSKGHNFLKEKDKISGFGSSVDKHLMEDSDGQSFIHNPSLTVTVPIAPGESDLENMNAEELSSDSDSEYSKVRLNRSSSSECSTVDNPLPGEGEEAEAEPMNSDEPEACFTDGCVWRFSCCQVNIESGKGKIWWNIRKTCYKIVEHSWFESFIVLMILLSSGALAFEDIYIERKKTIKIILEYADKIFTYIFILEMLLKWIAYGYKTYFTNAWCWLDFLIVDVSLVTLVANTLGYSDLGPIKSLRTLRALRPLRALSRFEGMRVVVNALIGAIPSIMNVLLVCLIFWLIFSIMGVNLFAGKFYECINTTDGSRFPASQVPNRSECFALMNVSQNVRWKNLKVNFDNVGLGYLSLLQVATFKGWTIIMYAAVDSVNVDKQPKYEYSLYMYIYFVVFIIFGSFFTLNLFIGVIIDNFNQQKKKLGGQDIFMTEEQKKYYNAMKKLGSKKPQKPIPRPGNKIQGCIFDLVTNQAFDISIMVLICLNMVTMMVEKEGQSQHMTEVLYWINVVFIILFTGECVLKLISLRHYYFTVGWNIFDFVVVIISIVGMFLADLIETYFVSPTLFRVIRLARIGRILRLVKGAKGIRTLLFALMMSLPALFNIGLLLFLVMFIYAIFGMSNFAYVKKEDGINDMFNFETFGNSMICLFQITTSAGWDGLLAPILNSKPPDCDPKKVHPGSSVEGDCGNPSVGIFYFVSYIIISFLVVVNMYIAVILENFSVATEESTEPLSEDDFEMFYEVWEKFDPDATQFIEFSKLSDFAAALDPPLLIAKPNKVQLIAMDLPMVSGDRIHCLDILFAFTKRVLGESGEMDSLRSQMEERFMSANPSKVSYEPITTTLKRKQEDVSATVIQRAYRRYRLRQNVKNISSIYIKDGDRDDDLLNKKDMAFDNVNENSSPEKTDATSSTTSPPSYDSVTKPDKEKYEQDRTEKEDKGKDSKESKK

The assay concerns the target human sodium ion channel 1.7 (hNav1.7) (Homo sapiens, UniProt Q15858). Put plainly: Blocking effect against sodium ion channel Nav1.7, IonFlux16 auto patch clamp in hNav1.7 HEK293 cells. Format: cell-based. Particulars: hNav1.7 HEK293 cells; inhibition of peak current after 50 seconds treatment; eight concentrations; read-out: IC50.
With `CS(=O)(=O)NC(=O)c1cc(Cl)c(-n2nc(Cl)c3cc(-c4cc(C#N)ccc4F)ccc32)cc1F` [Example 238, 5-chloro-4-(3-chloro-5-(5-cyano-2-fluorophenyl)-1H-indazol-1-yl)-2-fluoro-N-(methylsulfonyl)benzamide], the IC50 – broadly, the concentration that gives 50% inhibition – worked out at 341 nM.

For `COC(=O)c1nn(-c2cc(F)c(C(=O)NS(C)(=O)=O)cc2Cl)c2cc(OCc3ccccc3)ccc12` [Example 46, methyl 6-(benzyloxy)-1-(2-chloro-5-fluoro-4-((methylsulfonyl)carbamoyl)phenyl)-1H-indazole-3-carboxylate], the IC50 is > 10000 nM.

Consider `Cc1cccc(-c2ccc3c(c2)c(Cl)nn3-c2cc(F)c(C(=O)NS(C)(=O)=O)cc2Cl)c1` [Example 233, 5-chloro-4-(3-chloro-5-(m-tolyl)-1H-indazol-1-yl)-2-fluoro-N-(methylsulfonyl)benzamide], for which the IC50 was determined as 68 nM.

For the compound `CC(C)COc1ccc2c(c1)c(Cl)nn2-c1cc(F)c(C(=O)NS(C)(=O)=O)cc1Cl` [Example 42, 5-chloro-4-(3-chloro-5-isobutoxy-1H-indazol-1-yl)-2-fluoro-N-(methylsulfonyl)benzamide], the IC50 turned out to be 181 nM.

As for `Cn1nccc1-c1nn(-c2cc(F)c(C(=O)NS(C)(=O)=O)cc2Cl)c2ccc(Cl)cc12` [Example 87, 5-chloro-4-(5-chloro-3-(1-methyl-1H-pyrazol-5-yl)-1H-indazol-1-yl)-2-fluoro-N-(methylsulfonyl)benzamide], the IC50 is > 3000 nM.

Turning to `CC(C)Cc1ccc2c(c1)c(-c1ccccc1)nn2-c1cc(F)c(C(=O)NS(C)(=O)=O)cc1Cl` [Example 84, 5-chloro-2-fluoro-4-(5-isobutyl-3-phenyl-1H-indazol-1-yl)-N-(methylsulfonyl)benzamide], the IC50 worked out at 110 nM.

As to `CS(=O)(=O)NC(=O)c1cc(Cl)c(-n2cc(-c3ccccc3Cl)c3cccnc32)cc1F` [Example 225, 5-chloro-4-(3-(2-chlorophenyl)-1H-pyrrolo[2,3-b]pyridin-1-yl)-2-fluoro-N-(methylsulfonyl)benzamide], the 50% inhibitory concentration (IC50) was determined as 460 nM.

Regarding `CS(=O)(=O)NC(=O)c1cc(Cl)c(-n2nc(Cl)c3cc(OCc4ccccc4)ccc32)cc1F` [Example 28, 4-(5-(benzyloxy)-3-chloro-1H-indazol-1-yl)-5-chloro-2-fluoro-N-(methylsulfonyl)benzamide], the IC50 was 49 nM.

As to `CS(=O)(=O)NC(=O)c1cc(Cl)c(-n2nc(-c3ccc(Cl)cc3F)c3ccccc32)cc1F` [Example 184, 5-chloro-4-(3-(4-chloro-2-fluorophenyl)-1H-indazol-1-yl)-2-fluoro-N-(methylsulfonyl)benzamide], the IC50 came out at 70 nM.

In the case of `COc1cc(F)ccc1-c1cn(-c2cc(F)c(C(=O)NS(C)(=O)=O)cc2Cl)c2ncc(Cl)cc12` [Example 199, 5-chloro-4-(5-chloro-3-(4-fluoro-2-methoxyphenyl)-1H-pyrrolo[2,3-b]pyridin-1-yl)-2-fluoro-N-(methylsulfonyl)benzamide], the IC50 came out at 200 nM.

For `CS(=O)(=O)NC(=O)c1cc(Cl)c(-n2cc(-c3cccc(Cl)c3)c3cccnc32)cc1F` [Example 221, 5-chloro-4-(3-(3-chlorophenyl)-1H-pyrrolo[2,3-b]pyridin-1-yl)-2-fluoro-N-(methylsulfonyl)benzamide], the IC50 was 970 nM.

As for `CS(=O)(=O)NC(=O)c1cc(Cl)c(-n2nc(Cl)c3cc(-c4ccc(C(F)(F)F)cc4)ccc32)cc1F` [Example 251, 5-chloro-4-(3-chloro-5-(4-(trifluoromethyl)phenyl)-1H-indazol-1-yl)-2-fluoro-N-(methylsulfonyl)benzamide], the IC50 is 113 nM.

In the case of `CS(=O)(=O)NC(=O)c1cc(Cl)c(-n2cc(Cl)c3cc(-c4ccc(F)cc4)cnc32)cc1F` [Example 257, 5-chloro-4-(3-chloro-5-(4-fluorophenyl)-1H-pyrrolo[2,3-b]pyridin-1-yl)-2-fluoro-N-(methylsulfonyl)benzamide], the IC50 came out at 360 nM.

As to `CS(=O)(=O)NC(=O)c1cc(Cl)c(-n2cc(-c3ccc(C(F)(F)F)cc3)c3cc(F)cnc32)cc1F` [Example 205, 5-chloro-2-fluoro-4-(5-fluoro-3-(4-(trifluoromethyl)phenyl)-1H-pyrrolo[2,3-b]pyridin-1-yl)-N-(methylsulfonyl)benzamide], the IC50 came to 50 nM.

`Cn1nccc1-c1nn(-c2cc(F)c(S(=O)(=O)Nc3ncns3)cc2Cl)c2ccc(Cl)cc12` [Example 283, 5-chloro-4-(5-chloro-3-(1-methyl-1H-pyrazol-5-yl)-1H-indazol-1-yl)-2-fluoro-N-(1,2,4-thiadiazol-5-yl)benzenesulfonamide]: the IC50 is > 3000 nM.

`CS(=O)(=O)NC(=O)c1cc(Cl)c(-n2nc(Cl)c3cc(-c4cncnc4)ccc32)cc1F` [Example 241, 5-chloro-4-(3-chloro-5-(pyrimidin-5-yl)-1H-indazol-1-yl)-2-fluoro-N-(methylsulfonyl)benzamide]: the half-inhibitory concentration (IC50) is > 10000 nM.

In the case of `CS(=O)(=O)NC(=O)c1ccc(-n2nc(-c3ccccc3C#N)c3cc(Cl)ccc32)c(C#N)c1` [Example 94, 4-(5-chloro-3-(2-cyanophenyl)-1H-indazol-1-yl)-3-cyano-N-(methylsulfonyl)benzamide], the half-inhibitory concentration (IC50) is > 10000 nM.

On to `CS(=O)(=O)NC(=O)c1cc(Cl)c(-n2nc(-c3cccnc3)c3ccccc32)cc1F` [Example 180, 5-chloro-2-fluoro-N-(methylsulfonyl)-4-(3-(pyridin-3-yl)-1H-indazol-1-yl)benzamide], for which the IC50 is > 10000 nM.

Consider `Cn1nccc1-c1ccc2c(c1)c(Cl)nn2-c1cc(F)c(C(=O)NS(C)(=O)=O)cc1Cl` [Example 256, 5-chloro-4-(3-chloro-5-(1-methyl-1H-pyrazol-5-yl)-1H-indazol-1-yl)-2-fluoro-N-(methylsulfonyl)benzamide], for which the IC50 came to 3990 nM.

With `CS(=O)(=O)NC(=O)c1ccc(-n2nc(-c3ccc(C(F)(F)F)cc3)c3cc(Cl)ccc32)c(C#N)c1` [Example 99, 4-(5-chloro-3-(4-(trifluoromethyl)phenyl)-1H-indazol-1-yl)-3-cyano-N-(methylsulfonyl)benzamide], the IC50 was 1340 nM.

`CS(=O)(=O)NC(=O)c1cc(Cl)c(-n2nc(-c3cccc(Cl)c3)c3cc(Cl)ccc32)cc1F` [Example 72, 5-chloro-4-(5-chloro-3-(3-chlorophenyl)-1H-indazol-1-yl)-2-fluoro-N-(methylsulfonyl)benzamide]: the IC50 came to 61 nM.

With `CS(=O)(=O)NC(=O)c1cc(Cl)c(-n2nc(-c3c(F)cccc3Cl)c3cc(F)ccc32)cc1F` [Example 162, 5-chloro-4-(3-(2-chloro-6-fluorophenyl)-5-fluoro-1H-indazol-1-yl)-2-fluoro-N-(methylsulfonyl)benzamide], the IC50 amounted to 640 nM.

`COc1ccc(-c2nn(-c3ccc(C(=O)NS(C)(=O)=O)cc3F)c3ccc(Cl)cc23)cc1` [Example 118, 4-(5-chloro-3-(4-methoxyphenyl)-1H-indazol-1-yl)-3-fluoro-N-(methylsulfonyl)benzamide]: the IC50 stood at 360 nM.

`CS(=O)(=O)NC(=O)c1ccc(-n2nc(-c3ccc(F)cc3F)c3cc(Cl)ccc32)c(C#N)c1` [Example 105, 4-(5-chloro-3-(2,4-difluorophenyl)-1H-indazol-1-yl)-3-cyano-N-(methylsulfonyl)benzamide]: the IC50 amounted to 957 nM.

Turning to `CS(=O)(=O)NC(=O)c1cc(Cl)c(-n2ncc3c(Cl)c(OCc4ccccc4)ccc32)cc1F` [Example 29, 4-(5-(benzyloxy)-4-chloro-1H-indazol-1-yl)-5-chloro-2-fluoro-N-(methylsulfonyl)benzamide], the IC50 is 786 nM.

As for `CS(=O)(=O)NC(=O)c1cc(Cl)c(-n2nc(-c3ccccc3C(F)(F)F)c3cc(F)ccc32)cc1F` [Example 145, 5-chloro-2-fluoro-4-(5-fluoro-3-(2-(trifluoromethyl)phenyl)-1H-indazol-1-yl)-N-(methylsulfonyl)benzamide], the half-maximal inhibitory concentration (IC50) turned out to be 110 nM.

Take `CS(=O)(=O)NC(=O)c1cc(F)c(-n2nc(-c3ccc(F)cc3)c3cc(Cl)ccc32)cc1Cl` [Example 112, 2-chloro-4-(5-chloro-3-(4-fluorophenyl)-1H-indazol-1-yl)-5-fluoro-N-(methylsulfonyl)benzamide]: the IC50 amounted to 789 nM.

Consider `Fc1cc(-n2nc(-c3ccc(Cl)cc3F)c3cc(Cl)ccc32)c(Cl)cc1-c1nnn[nH]1` [Example 289, 5-chloro-3-(4-chloro-2-fluorophenyl)-1-(2-chloro-5-fluoro-4-(1H-tetrazol-5-yl)phenyl)-1H-indazole], for which the IC50 is > 10000 nM.

As to `COc1ccc2c(c1)c(Cl)cn2-c1cc(F)c(C(=O)NS(C)(=O)=O)cc1Cl` [Example 268, 5-chloro-4-(3-chloro-5-methoxy-1H-indol-1-yl)-2-fluoro-N-(methylsulfonyl)benzamide], the IC50 was 608 nM.

Take `O=S(=O)(Nc1cscn1)c1cc(Cl)c(-n2nc(Cl)c3cc(C(F)(F)F)ccc32)cc1F` [Example 280, 5-chloro-4-(3-chloro-5-(trifluoromethyl)-1H-indazol-1-yl)-2-fluoro-N-(thiazol-4-yl)benzenesulfonamide]: the IC50 worked out at 1080 nM.

On to `CS(=O)(=O)NC(=O)c1cc(Cl)c(-n2nc(-c3cccnc3)c3cc(Cl)ccc32)cc1F` [Example 50, 5-chloro-4-(5-chloro-3-(pyridin-3-yl)-1H-indazol-1-yl)-2-fluoro-N-(methylsulfonyl)benzamide], for which the IC50 stood at 913 nM.

Take `CS(=O)(=O)NC(=O)c1cc(Cl)c(-n2cc(-c3ccc(Cl)cc3F)c3cc(F)cnc32)cc1F` [Example 201, 5-chloro-4-(3-(4-chloro-2-fluorophenyl)-5-fluoro-1H-pyrrolo[2,3-b]pyridin-1-yl)-2-fluoro-N-(methylsulfonyl)benzamide]: the IC50 worked out at 70 nM.

`CS(=O)(=O)NC(=O)c1cc(Cl)c(-n2nc(-c3cccc(F)c3)c3cc(Cl)ccc32)cc1F` [Example 54, 5-chloro-4-(5-chloro-3-(3-fluorophenyl)-1H-indazol-1-yl)-2-fluoro-N-(methylsulfonyl)benzamide]: the IC50 was determined as 26 nM.

The values above are taken from patent US10590078B2, “Sodium channel blockers” (Daewoong Pharmaceutical Co., Ltd., priority 2015, dated 2020).
